Reference: US7375109B2, “Glycine-substituted thieno[2,3-d]pyrimidines with combined LH and FSH agonistic activity” (N.V. Organon, priority 2001, dated 2008)

Assays:
human LH receptor = target: T1, human LH receptor (Homo sapiens, UniProt P22888); assay: CHO-LH in vitro bioactivity (CRE-luciferase reporter); type: cell-based; conditions: CHO cells stably transfected with human LH receptor
T1 construct: expressed in transfected cells; host or cells: Chinese Hamster Ovary (CHO) cells, stably transfected; cotransfected with CRE-luciferase reporter
Experimental: (§1) It has been shown that compounds of the above mentioned formula I show agonistic LH and FSH activity. […] Typically the FSH activity ranges from an activity of about 0.1% of the LH agonist stimulation to about 10% of the LH agonist stimulation.
(§2) LH agonistic activity of compounds were tested in Chinese Hamster Ovary (CHO) cells stably transfected with the human LH receptor and cotransfected with a cAMP responsive element (CRE)/promotor directing the expression of a firefly luciferase reporter gene. Binding of ligand to the Gs-coupled LH receptor will result in an increase of cAMP, which in turn will induce an increased transactivation of the luciferase reporter construct. The luciferase signal was quantified using a luminescence counter. For test compounds, EC50 values (concentration of test compound causing half-maximal (50%) stimulation) were calculated. For that purpose the software program GraphPad PRISM, version 3.0 (GraphPad software Inc., San Diego) was used.

immature female mice = assay: In vivo bioactivity: ovulation induction in immature mice; conditions: immature female mice primed with urinary FSH (Humegon 12.5 IU/animal); 50 mg/kg about 48 hours later; killed 24 hours after treatment
Experimental: To measure LH in vivo activity of compounds, ovulation induction in immature mice can be studied. In this assay immature female mice are primed with urinary FSH and approximately 48 hours later treated with a LH agonistic compound. The animals are killed after LH agonist treatment and the number of ova in the oviduct is microscopically assessed.
To measure in vivo activity of LH/FSH receptor agonistic compounds ovulation induction in immature mice were studied. In this assay immature female mice were primed with urinary FSH (Humegon 12.5 IU/animal). Approximately 48 hours later the animals were treated with a LH/FSH agonistic compound, the preparation of which is described in examples 1, 4, 9 and 17, at a dose-level of 50 mg/kg. The animals were killed 24 hours after LH/FSH agonist treatment and the number of ova in the oviduct was microscopically assessed. On average 10-15 animals were tested. The mean number of ova amounted 8 with the exception of the compound of example 17 (which was 0.4).

human FSH receptor = target: T2, human FSH receptor (Homo sapiens, UniProt P23945); assay: CHO-FSH in vitro bioactivity (CRE-luciferase reporter); type: cell-based; conditions: CHO cells transfected with human FSH receptor and luciferase reporter gene
T2 construct: expressed in transfected cells; host or cells: CHO cells transfected with human FSH receptor and CRE-luciferase reporter
T2 sequence (P23945 18-695): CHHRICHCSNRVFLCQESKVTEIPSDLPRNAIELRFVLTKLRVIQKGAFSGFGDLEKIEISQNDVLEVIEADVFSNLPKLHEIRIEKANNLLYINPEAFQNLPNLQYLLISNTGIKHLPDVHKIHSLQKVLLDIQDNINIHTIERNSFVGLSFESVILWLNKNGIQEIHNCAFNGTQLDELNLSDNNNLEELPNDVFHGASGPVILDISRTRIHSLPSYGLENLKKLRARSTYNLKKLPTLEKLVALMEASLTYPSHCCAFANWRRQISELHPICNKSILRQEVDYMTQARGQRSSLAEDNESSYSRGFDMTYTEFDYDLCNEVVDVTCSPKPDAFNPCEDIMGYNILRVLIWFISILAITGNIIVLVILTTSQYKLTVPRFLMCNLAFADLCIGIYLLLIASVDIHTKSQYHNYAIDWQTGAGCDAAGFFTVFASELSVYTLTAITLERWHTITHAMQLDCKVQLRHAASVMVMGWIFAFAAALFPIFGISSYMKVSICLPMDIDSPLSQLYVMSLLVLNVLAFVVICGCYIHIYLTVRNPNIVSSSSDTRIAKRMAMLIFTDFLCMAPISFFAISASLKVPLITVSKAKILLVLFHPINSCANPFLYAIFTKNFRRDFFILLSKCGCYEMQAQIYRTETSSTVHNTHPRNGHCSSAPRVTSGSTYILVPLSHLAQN
Experimental: as §1, §2
In a similar way FSH agonistic activity of compounds were tested in CHO cells transfected with the luciferase reporter gene and the human FSH receptor.

T1 sequence (P22888 27-699): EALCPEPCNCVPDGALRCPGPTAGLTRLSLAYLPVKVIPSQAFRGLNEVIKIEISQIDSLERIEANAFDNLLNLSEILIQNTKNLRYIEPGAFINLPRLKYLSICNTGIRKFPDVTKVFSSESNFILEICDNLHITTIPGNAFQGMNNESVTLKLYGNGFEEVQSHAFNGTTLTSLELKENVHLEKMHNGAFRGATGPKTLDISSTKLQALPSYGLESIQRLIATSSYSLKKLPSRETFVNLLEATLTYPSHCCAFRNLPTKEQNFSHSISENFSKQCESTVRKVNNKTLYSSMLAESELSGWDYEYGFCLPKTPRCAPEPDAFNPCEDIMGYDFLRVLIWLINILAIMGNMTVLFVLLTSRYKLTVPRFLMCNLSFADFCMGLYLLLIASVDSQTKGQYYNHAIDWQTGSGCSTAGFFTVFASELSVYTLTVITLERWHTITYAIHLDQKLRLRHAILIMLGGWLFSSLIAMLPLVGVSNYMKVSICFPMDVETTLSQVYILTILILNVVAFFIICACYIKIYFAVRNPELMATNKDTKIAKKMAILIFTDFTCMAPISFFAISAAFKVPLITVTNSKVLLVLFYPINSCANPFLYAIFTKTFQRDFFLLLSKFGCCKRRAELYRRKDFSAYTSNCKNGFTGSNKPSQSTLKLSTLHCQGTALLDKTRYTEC

EC50 (human LH receptor) | EC50 (human FSH receptor) | SMILES | mean number of ova in the oviduct (immature female mice)
2.73 nM | 56.9 nM | CSc1nc(-c2cccc(NC(=O)CN(C)CCO)c2)c2c(N)c(C(=O)NC(C)(C)C)sc2n1 [Example 1, tert-Butyl 5-amino-2-methylthio-4-(3-((N-methyl-N-(2-hydroxyethyl)-glycinyl)-amino)-phenyl)-thieno[2,3-d]pyrimidine-6-carboxamide] | 8
5.42 nM | 806 nM | CSc1nc(-c2cccc(NC(=O)CNC(C)(C)CO)c2)c2c(N)c(C(=O)NC(C)(C)C)sc2n1 [Example 2, tert-Butyl 5-amino-2-methylthio-4-(3-((N-(1-hydroxy-2-methyl-prop-2-yl) -glycinyl)-amino)-phenyl)-thieno[2,3-d]pyrimidine-6-carboxamide] | –
5.97 nM | 1440 nM | COC(=O)CNCC(=O)Nc1cccc(-c2nc(SC)nc3sc(C(=O)NC(C)(C)C)c(N)c23)c1 [Example 3, tert-Butyl 5-amino-2-methylthio-4-(3-((N-(methoxycarbonylmethyl)-glycinyl)-amino)-phenyl)-thieno[2,3-d]pyrimidine-6-carboxamide] | –
9.63 nM | 348 nM | COC(=O)[C@H](NCC(=O)Nc1cccc(-c2nc(SC)nc3sc(C(=O)NC(C)(C)C)c(N)c23)c1)C(C)C [Example 5, tert-Butyl 5-amino-2-methylthio-4-(3-((N-(R-1-methoxycarbonyl-2-methyl-prop-1-yl)-glycinyl)-amino)-phenyl)-thieno[2,3-d]pyrimidine-6-carboxamide] | –
10 nM | 1180 nM | COCCN(CCOC)CC(=O)Nc1cccc(-c2nc(SC)nc3sc(C(=O)NC(C)(C)C)c(N)c23)c1 [Example 6, tert-Butyl 5-amino-2-methylthio-4-(3-((N,N-bis-(2-methoxyethyl)-glycinyl)-amino)-phenyl)-thieno[2,3-d]pyrimidine-6-carboxamide] | –
12.2 nM | 1130 nM | CSc1nc(-c2cccc(NC(=O)CNCC(O)CO)c2)c2c(N)c(C(=O)NC(C)(C)C)sc2n1 (centres unmarked) [Example 7] | –
26.4 nM | 1000 nM | CSc1nc(-c2cccc(NC(=O)CNC(CO)CO)c2)c2c(N)c(C(=O)NC(C)(C)C)sc2n1 [Example 8] | –
10.1 nM | 2480 nM | COC(=O)CNCC(=O)Nc1cccc(-c2nc(-c3ccccc3)nc3sc(C(=O)NC(C)(C)C)c(N)c23)c1 [Example 10] | –
4 nM | 616 nM | CN(CCO)CC(=O)Nc1cccc(-c2nc(-c3ccco3)nc3sc(C(=O)NC(C)(C)C)c(N)c23)c1 [Example 11, tert-Butyl 5-amino-2-(2-furyl)-4-(3-((N-methyl-N-(2-hydroxyethyl)-glycinyl)-amino)-phenyl)-thieno[2,3-d]pyrimidine-6-carboxamide] | –
11.8 nM | 2970 nM | CC(C)(C)NC(=O)c1sc2nc(-c3ccco3)nc(-c3cccc(NC(=O)CNC(C)(C)CO)c3)c2c1N [Example 12] | –
12.1 nM | 2550 nM | COC(=O)CNCC(=O)Nc1cccc(-c2nc(-c3ccco3)nc3sc(C(=O)NC(C)(C)C)c(N)c23)c1 [Example 13] | –
5.28 nM | 1440 nM | CN(CCO)CC(=O)Nc1cccc(-c2nc(-c3cccs3)nc3sc(C(=O)NC(C)(C)C)c(N)c23)c1 [Example 14, tert-Butyl 5-amino-2-(2-thienyl)-4-(3-((N-methyl-N-(2-hydroxyethyl)-glycinyl)-amino)-phenyl)-thieno[2,3-d]pyrimidine-6-carboxamide] | –
18.2 nM | 3210 nM | COC(=O)CNCC(=O)Nc1cccc(-c2nc(-c3cccs3)nc3sc(C(=O)NC(C)(C)C)c(N)c23)c1 [Example 15, tert-Butyl 5-amino-2-(2-thienyl)-4-(3-((N-(methoxycarbonylmethyl)-glycinyl)-amino)-phenyl)-thieno[2,3-d]pyrimidine-6-carboxamide] | –
21.3 nM | 6810 nM | COCCN(CCOC)CC(=O)Nc1cccc(-c2nc(-c3cccs3)nc3sc(C(=O)NC(C)(C)C)c(N)c23)c1 [Example 16, tert-Butyl 5-amino-2-(2-thienyl)-4-(3-((N,N-di-(2-methoxyethyl)-glycinyl)-amino)-phenyl)-thieno[2,3-d]pyrimidine-6-carboxamide] | –
14.5 nM | 1630 nM | CN(CCO)CC(=O)Nc1cccc(-c2nc(N(C)C)nc3sc(C(=O)NC(C)(C)C)c(N)c23)c1 [Example 18, tert-Butyl 5-amino-2-(N,N-dimethylamino)-4-(3-((N-methyl-N-(2-hydroxyethyl)-glycinyl)-amino)-phenyl)-thieno[2,3-d]pyrimidine-6-carboxamide] | –
22.9 nM | 2300 nM | CCNc1nc(-c2cccc(NC(=O)CNCC(=O)OC)c2)c2c(N)c(C(=O)NC(C)(C)C)sc2n1 [Example 19, tert-Butyl 5-amino-2-ethylamino-4-(3-((N-(methoxycarbonylmethyl)-glycinyl)-amino)-phenyl)-thieno[2,3-d]pyrimidine-6-carboxamide] | –
42.4 nM | 2950 nM | CCN(CCOC)CC(=O)Nc1cccc(-c2nc(NC(C)C)nc3sc(C(=O)NC(C)(C)C)c(N)c23)c1 [Example 20, tert-Butyl 5-amino-2-isopropylamino-4-(3-((N-ethyl-N-(2-methoxyethyl)-glycinyl)-amino)-phenyl)-thieno[2,3-d]pyrimidine-6-carboxamide] | –
57 nM | 560 nM | C=CCNc1nc(-c2cccc(NC(=O)CNCC(=O)OC)c2)c2c(N)c(C(=O)NC(C)(C)C)sc2n1 [Example 21, tert-Butyl 5-amino-2-allylamino-4-(3-((N-(methoxycarbonylmethyl)-glycinyl)-amino)-phenyl)-thieno[2,3-d]pyrimidine-6-carboxamide] | –
11.6 nM | 953 nM | CCN(CCOC)CC(=O)Nc1cccc(-c2nc(OC)nc3sc(C(=O)NC(C)(C)C)c(N)c23)c1 [Example 22, tert-Butyl 5-amino-2-methoxy-4-(3-((N-ethyl-N-(2-methoxyethyl)-glycinyl)-amino)-phenyl)-thieno[2,3-d]pyrimidine-6-carboxamide] | –
36.8 nM | 1740 nM | C=CCOc1nc(-c2cccc(NC(=O)CN(CC)CCOC)c2)c2c(N)c(C(=O)NC(C)(C)C)sc2n1 [Example 23, tert-Butyl 5-amino-2-allyloxy-4-(3-((N-ethyl-N-(2-methoxyethyl)-glycinyl)-amino)-phenyl)-thieno[2,3-d]pyrimidine-6-carboxamide] | –
78.2 nM | 2510 nM | CCN(CCOC)CC(=O)Nc1cccc(-c2nc(OC(C)C)nc3sc(C(=O)NC(C)(C)C)c(N)c23)c1 [Example 24, tert-Butyl 5-amino-2-isopropoxy-4-(3-((N-ethyl-N-(2-methoxyethyl)-glycinyl)-amino)-phenyl)-thieno[2,3-d]pyrimidine-6-carboxamide] | –
34.7 nM | 400 nM | CC(C)(C)NC(=O)c1sc2nc(-c3ccncc3)nc(-c3cccc(NC(=O)CNC(C)(C)CO)c3)c2c1N [Example 25, tert-Butyl 5-amino-2-(4-pyridyl)-4-(3-((N-(1-hydroxy-2-methyl-prop-2-yl) -glycinyl)-amino)-phenyl)-thieno[2,3-d]pyrimidine-6-carboxamide] | –
38.2 nM | 1230 nM | COCCN(CCOC)CC(=O)Nc1cccc(-c2nc(-c3ccncc3)nc3sc(C(=O)NC(C)(C)C)c(N)c23)c1 [Example 26, tert-Butyl 5-amino-2-(4-pyridyl)-4-(3-((N,N-bis-(2-methoxyethyl)-glycinyl)-amino)-phenyl)-thieno[2,3-d]pyrimidine-6-carboxamide] | –
